We go through 20 compounds from ChEMBL document CHEMBL5325456, “5-(4-Hydroxyphenyl)-3H-1,2-dithiole-3-thione derivatives of brefeldin A: Design, synthesis and cytotoxicity in MDA-MB-231 human breast cancer cells” (Bioorg Med Chem, 2023).

The test system of one series is DU-145. Put plainly: Antiproliferative activity against human DU-145 cells assessed as reduction in cell viability incubated for 48 hrs by CCk-8 assay. Format: functional, cell-based. To be noted: DU-145, 48 h.
A further series relates to A-375. Put plainly: Antiproliferative activity against human A-375 cells assessed as reduction in cell viability incubated for 48 hrs by CCk-8 assay. To be noted: A-375, 48 h. Format: functional, cell-based.
A further series deals with MDA-MB-231. The series is described as follows: Antiproliferative activity against human MDA-MB-231 cells assessed as reduction in cell viability incubated for 48 hrs by CCk-8 assay. Format: functional, cell-based. The following applies: MDA-MB-231, 48 h.
The subject of a further series is HeLa. The series is described as follows: Antiproliferative activity against human HeLa cells assessed as reduction in cell viability incubated for 48 hrs by CCk-8 assay. Format: functional, cell-based.
The test system of a further series is HepG2. Put plainly: Antiproliferative activity against human HepG2 cells assessed as reduction in cell viability incubated for 48 hrs by CCk-8 assay. Format: functional, cell-based. To be noted: HepG2, 48 h.
The next series concerns A549. Put plainly: Antiproliferative activity against human A549 cells assessed as reduction in cell viability incubated for 48 hrs by CCk-8 assay. Format: functional, cell-based. To be noted: A549, 48 h.
Series [1] in a line: Antiproliferative activity against human L02 cells assessed as reduction in cell viability incubated for 48 hrs by CCk-8 assay. Format: toxicity, cell-based.

Some results are limits rather than exact numbers.

Consider `C[C@H]1CCC/C=C/[C@@H]2C[C@H](OC(=O)c3ccccc3C(=O)OCCCCCCOc3ccc(-c4cc(=S)ss4)cc3)C[C@H]2[C@H](OC(=O)c2ccccc2C(=O)OCCCCCCOc2ccc(-c3cc(=S)ss3)cc2)/C=C/C(=O)O1`, for which the IC50 in the series with DU-145, in the series with A-375, in the series on MDA-MB-231, in the series with HeLa, in the series with HepG2 and in the series with A549 was greater than 40 µM in each case. For the same compound, in series [1], the IC50 (in general, the point on the concentration scale where inhibition reaches its midpoint) at 48 h was greater than 40 µM.

Turning to `C[C@H]1CCC/C=C/[C@@H]2C[C@H](OC(=O)CCC(=O)OCCCCCCOc3ccc(-c4cc(=S)ss4)cc3)C[C@H]2[C@H](OC(=O)CCC(=O)OCCCCCCOc2ccc(-c3cc(=S)ss3)cc2)/C=C/C(=O)O1`, the IC50 in the series with DU-145, with A-375, in the series with MDA-MB-231, in the series on HeLa, in the series on HepG2 and in the series on A549 was greater than 40 µM throughout. Besides, the IC50 at 48 h in series [1] is greater than 40 µM.

With `C[C@H]1CCC/C=C/[C@@H]2C[C@H](O)C[C@H]2[C@H](OC(=O)c2ccccc2C(=O)OCCCCOc2ccc(-c3cc(=S)ss3)cc2)/C=C/C(=O)O1`, the IC50 with DU-145 was greater than 40 µM; with A-375, greater than 40 µM; with MDA-MB-231, greater than 40 µM; with HeLa, 26.9 µM; in the series on HepG2, greater than 40 µM; with A549, greater than 40 µM. The 50% inhibitory concentration (IC50) at 48 h in series [1] is greater than 80 µM.

With `C[C@H]1CCC/C=C/[C@@H]2C[C@H](OC(=O)CCC(=O)OCCOc3ccc(-c4cc(=S)ss4)cc3)C[C@H]2[C@H](OC(=O)CCC(=O)OCCOc2ccc(-c3cc(=S)ss3)cc2)/C=C/C(=O)O1`, the IC50 is greater than 40 µM with DU-145; greater than 40 µM in the series with A-375; greater than 40 µM in the series on MDA-MB-231; 5.68 µM in the series with HeLa; greater than 40 µM in the series on HepG2; greater than 40 µM with A549. Further, in series [1], the IC50 at 48 h is greater than 40 µM.

Turning to `C[C@H]1CCC/C=C/[C@@H]2C[C@H](OC(=O)c3ccccc3C(=O)OCCCCOc3ccc(-c4cc(=S)ss4)cc3)C[C@H]2[C@H](OC(=O)c2ccccc2C(=O)OCCCCOc2ccc(-c3cc(=S)ss3)cc2)/C=C/C(=O)O1`, the IC50 in the series with DU-145, with A-375, with MDA-MB-231, in the series with HeLa, in the series on HepG2 and with A549 was greater than 40 µM throughout. Further, the IC50 at 48 h in series [1] was greater than 40 µM.

In the case of `CC(=O)O[C@H]1C(=O)[C@@]2(C)[C@H]([C@H](OC(=O)c3ccccc3)[C@]3(O)C[C@H](OC(=O)[C@H](O)[C@@H](NC(=O)c4ccccc4)c4ccccc4)C(C)=C1C3(C)C)[C@]1(OC(C)=O)CO[C@@H]1C[C@@H]2O` [PACLITAXEL], the IC50 with A-375 was 0.059 µM; in the series with MDA-MB-231, 0.33 µM; in the series on HeLa, 0.034 µM; in the series on HepG2 it was 0.55 µM; in the series on A549 it was 0.014 µM. Further, the IC50 at 48 h in series [1] was determined as 0.13 µM.

With `C[C@H]1CCC/C=C/[C@@H]2C[C@H](OC(=O)CCC(=O)OCCCCOc3ccc(-c4cc(=S)ss4)cc3)C[C@H]2[C@H](O)/C=C/C(=O)O1`, the IC50 with DU-145, in the series with A-375, with MDA-MB-231, with HeLa, with HepG2 and in the series on A549 was greater than 40 µM in each case. The IC50 at 48 h in series [1] is greater than 80 µM.

Regarding `C[C@H]1CCC/C=C/[C@@H]2C[C@H](OC(=O)CCC(=O)Oc3ccc(-c4cc(=S)ss4)cc3)C[C@H]2[C@H](OC(=O)CCC(=O)Oc2ccc(-c3cc(=S)ss3)cc2)/C=C/C(=O)O1`, the IC50 with DU-145, with A-375, in the series on MDA-MB-231, in the series on HeLa, in the series with HepG2 and in the series with A549 was greater than 40 µM in each case. Further, in series [1], the IC50 at 48 h was greater than 40 µM.

Consider `C[C@H]1CCC/C=C/[C@@H]2C[C@H](OC(=O)CCCC(=O)OCCOc3ccc(-c4cc(=S)ss4)cc3)C[C@H]2[C@H](OC(=O)CCCC(=O)OCCOc2ccc(-c3cc(=S)ss3)cc2)/C=C/C(=O)O1`, for which the IC50 in the series with DU-145, with A-375, in the series with MDA-MB-231, with HeLa, in the series on HepG2 and in the series on A549 was greater than 40 µM in each case. Besides, the IC50 at 48 h in series [1] is greater than 40 µM.

Turning to `C[C@H]1CCC/C=C/[C@@H]2C[C@H](O)C[C@H]2[C@H](OC(=O)c2ccccc2C(=O)OCCOc2ccc(-c3cc(=S)ss3)cc2)/C=C/C(=O)O1`, the IC50 in the series on DU-145, in the series on A-375, with MDA-MB-231, with HeLa, in the series with HepG2 and in the series on A549 was greater than 40 µM throughout. Besides, the IC50 at 48 h in series [1] was greater than 80 µM.

Consider `C[C@H]1CCC/C=C/[C@@H]2C[C@H](OC(=O)CCC(=O)OCCCCOc3ccc(-c4cc(=S)ss4)cc3)C[C@H]2[C@H](OC(=O)CCC(=O)OCCCCOc2ccc(-c3cc(=S)ss3)cc2)/C=C/C(=O)O1`, for which the IC50 with DU-145, with A-375, in the series on MDA-MB-231, in the series with HeLa, in the series with HepG2 and with A549 was greater than 40 µM in each case. The IC50 at 48 h in series [1] is greater than 40 µM.

With `C[C@H]1CCC/C=C/[C@@H]2C[C@H](O)C[C@H]2[C@H](OC(=O)c2ccccc2C(=O)OCCCCCCOc2ccc(-c3cc(=S)ss3)cc2)/C=C/C(=O)O1`, the IC50 in the series on DU-145, in the series with A-375, in the series with MDA-MB-231, in the series with HeLa, in the series with HepG2 and in the series with A549 was greater than 40 µM in each case. For the same compound, the IC50 at 48 h in series [1] is greater than 80 µM.

In the case of `C[C@H]1CCC/C=C/[C@@H]2C[C@H](OC(=O)CCCC(=O)Oc3ccc(-c4cc(=S)ss4)cc3)C[C@H]2[C@H](OC(=O)CCCC(=O)Oc2ccc(-c3cc(=S)ss3)cc2)/C=C/C(=O)O1`, the IC50 in the series with DU-145, in the series on A-375, in the series with MDA-MB-231, with HeLa, with HepG2 and in the series on A549 was greater than 40 µM throughout. Besides, in series [1], the IC50 at 48 h is greater than 40 µM.

Consider `C[C@H]1CCC/C=C/[C@@H]2C[C@H](OC(=O)CCC(=O)OCCCCCCOc3ccc(-c4cc(=S)ss4)cc3)C[C@H]2[C@H](O)/C=C/C(=O)O1`, for which the IC50 in the series with DU-145 was greater than 40 µM; in the series with A-375 it was greater than 40 µM; with MDA-MB-231 it was greater than 40 µM; in the series with HeLa, 25.2 µM; in the series with HepG2, greater than 40 µM; with A549 it was greater than 40 µM. Besides, in series [1], the concentration for half-maximal inhibition (IC50) at 48 h is greater than 80 µM.

For `Oc1ccc(-c2cc(=S)ss2)cc1`, the IC50 with DU-145 was 12.7 µM; in the series with A-375 it was greater than 40 µM; in the series on MDA-MB-231, 33.2 µM; in the series on HeLa, 6.48 µM; in the series on HepG2, 13.8 µM; in the series with A549 it was 27.6 µM. Moreover, in series [1], the IC50 at 48 h was 16.8 µM.

`C[C@H]1CCC/C=C/[C@@H]2C[C@H](OC(=O)CCCC(=O)OCCCCCCOc3ccc(-c4cc(=S)ss4)cc3)C[C@H]2[C@H](OC(=O)CCCC(=O)OCCCCCCOc2ccc(-c3cc(=S)ss3)cc2)/C=C/C(=O)O1`: the half-maximal inhibitory concentration (IC50) in the series on DU-145, in the series on A-375, in the series with MDA-MB-231, in the series with HeLa, in the series on HepG2 and in the series on A549 was greater than 40 µM in each case. In addition, the IC50 at 48 h in series [1] was greater than 40 µM.

As for `C[C@H]1CCC/C=C/[C@@H]2C[C@H](OC(=O)CCCC(=O)OCCCCOc3ccc(-c4cc(=S)ss4)cc3)C[C@H]2[C@H](OC(=O)CCCC(=O)OCCCCOc2ccc(-c3cc(=S)ss3)cc2)/C=C/C(=O)O1`, the IC50 with DU-145, in the series with A-375, in the series on MDA-MB-231, in the series with HeLa, in the series with HepG2 and with A549 was greater than 40 µM in each case. In series [1], the half-maximal inhibitory concentration (IC50) at 48 h is greater than 40 µM.

For the compound `C[C@H]1CCC/C=C/[C@@H]2C[C@H](OC(=O)CCC(=O)OCCOc3ccc(-c4cc(=S)ss4)cc3)C[C@H]2[C@H](O)/C=C/C(=O)O1`, the IC50 in the series on DU-145, in the series on A-375, in the series with MDA-MB-231, with HeLa, in the series on HepG2 and in the series on A549 was greater than 40 µM throughout. Moreover, the IC50 at 48 h in series [1] was greater than 80 µM.

With `C[C@H]1CCC/C=C/[C@@H]2C[C@H](OC(=O)c3ccccc3C(=O)Oc3ccc(-c4cc(=S)ss4)cc3)C[C@H]2[C@H](OC(=O)c2ccccc2C(=O)Oc2ccc(-c3cc(=S)ss3)cc2)/C=C/C(=O)O1`, the IC50 with DU-145, in the series with A-375, in the series on MDA-MB-231, in the series with HeLa, in the series on HepG2 and in the series on A549 was greater than 40 µM throughout. In series [1], the IC50 at 48 h is greater than 40 µM.

Consider `C[C@H]1CCC/C=C/[C@@H]2C[C@H](OC(=O)c3ccccc3C(=O)OCCOc3ccc(-c4cc(=S)ss4)cc3)C[C@H]2[C@H](OC(=O)c2ccccc2C(=O)OCCOc2ccc(-c3cc(=S)ss3)cc2)/C=C/C(=O)O1`, for which the IC50 with DU-145, in the series on A-375, with MDA-MB-231, in the series with HeLa, in the series on HepG2 and in the series on A549 was greater than 40 µM throughout. The IC50 at 48 h in series [1] was greater than 40 µM.
